Measurements as given in the NIST ThermoML archive (doi:10.1021/je0301489).

How the values were obtained:
[1] = refractive index (Na D-line) (dimensionless); xn = mol fraction of the nth substance listed; details: 101.33 kPa, Liquid
[2] = xn = mol fraction of the nth substance listed; details: 101.33 kPa, Liquid

C1COCCO1 [1,4-dioxane] + CCCCCCCCOC(=O)c1ccccc1C(=O)OCCCCCCCC
x1 = 1
Details	mass density, 298.15 K [kg/m3]	mass density, 303.15 K [kg/m3]	mass density, 308.15 K [kg/m3]	refractive index, 298.15 K	refractive index, 303.15 K	refractive index, 308.15 K	speed of sound, 298.15 K [m/s]	viscosity, 298.15 K [mPa·s]	viscosity, 303.15 K [mPa·s]	viscosity, 308.15 K [mPa·s]
[1]	–	–	–	1.4202	1.417	1.4144	–	–	–	–
[2]	1027.6	1021.9	1016.2	–	–	–	1348	1.166	1.069	0.984

C1COCCO1 [1,4-dioxane] + CCOC(=O)C(=O)OCC
x1 = 1
Details	mass density, 298.15 K [kg/m3]	mass density, 303.15 K [kg/m3]	mass density, 308.15 K [kg/m3]	refractive index, 298.15 K	refractive index, 303.15 K	refractive index, 308.15 K	speed of sound, 298.15 K [m/s]	viscosity, 298.15 K [mPa·s]	viscosity, 303.15 K [mPa·s]	viscosity, 308.15 K [mPa·s]
[1]	–	–	–	1.4202	1.417	1.4144	–	–	–	–
[2]	1027.6	1021.9	1016.2	–	–	–	1348	1.167	1.069	0.984

C1COCCO1 [1,4-dioxane] + CCOC(=O)CC(C)=O
x1 = 1
Details	mass density, 298.15 K [kg/m3]	mass density, 303.15 K [kg/m3]	mass density, 308.15 K [kg/m3]	refractive index, 298.15 K	refractive index, 303.15 K	refractive index, 308.15 K	speed of sound, 298.15 K [m/s]	viscosity, 298.15 K [mPa·s]	viscosity, 303.15 K [mPa·s]	viscosity, 308.15 K [mPa·s]
[1]	–	–	–	1.4201	1.417	1.4144	–	–	–	–
[2]	1027.6	1021.9	1016.2	–	–	–	1347	1.166	1.069	0.984

C1COCCO1 [1,4-dioxane] + CCOC(=O)c1ccccc1C(=O)OCC
x1 = 1
Details	mass density, 298.15 K [kg/m3]	mass density, 303.15 K [kg/m3]	mass density, 308.15 K [kg/m3]	refractive index, 298.15 K	refractive index, 303.15 K	refractive index, 308.15 K	speed of sound, 298.15 K [m/s]	viscosity, 298.15 K [mPa·s]	viscosity, 303.15 K [mPa·s]	viscosity, 308.15 K [mPa·s]
[1]	–	–	–	1.4202	1.417	1.4144	–	–	–	–
[2]	1027.6	1021.9	1016.2	–	–	–	1347	1.167	1.069	0.984

CCOC(=O)C(=O)OCC [diethyl ethanedioate] + C1COCCO1
Details	mass density, 298.15 K [kg/m3]	mass density, 303.15 K [kg/m3]	mass density, 308.15 K [kg/m3]	refractive index, 298.15 K	refractive index, 303.15 K	refractive index, 308.15 K	speed of sound, 298.15 K [m/s]	viscosity, 298.15 K [mPa·s]	viscosity, 303.15 K [mPa·s]	viscosity, 308.15 K [mPa·s]
[1], x2 = 0	–	–	–	1.4084	1.406	1.4034	–	–	–	–
[1], x2 = 0.1094	–	–	–	1.4092	1.4068	1.4043	–	–	–	–
[1], x2 = 0.2069	–	–	–	1.4101	1.4077	1.4052	–	–	–	–
[1], x2 = 0.3098	–	–	–	1.4112	1.4087	1.4062	–	–	–	–
[1], x2 = 0.4009	–	–	–	1.4119	1.4094	1.407	–	–	–	–
[1], x2 = 0.4975	–	–	–	1.4129	1.4106	1.4084	–	–	–	–
[1], x2 = 0.5978	–	–	–	1.4144	1.4118	1.409	–	–	–	–
[1], x2 = 0.7008	–	–	–	1.4157	1.4132	1.4106	–	–	–	–
[1], x2 = 0.7971	–	–	–	1.417	1.4145	1.412	–	–	–	–
[1], x2 = 0.8976	–	–	–	1.4183	1.4158	1.4132	–	–	–	–
[2], x2 = 0	1072.9	1066.2	1060.8	–	–	–	1276	1.759	1.581	1.437
[2], x2 = 0.1094	1070.9	1064.2	1058.1	–	–	–	1284	1.69	1.539	1.388
[2], x2 = 0.2069	1067.5	1061.4	1055.3	–	–	–	1292	1.631	1.487	1.343
[2], x2 = 0.3098	1064.4	1058.3	1052.1	–	–	–	1301	1.566	1.428	1.291
[2], x2 = 0.4009	1061.1	1055	1048.9	–	–	–	1310	1.505	1.375	1.245
[2], x2 = 0.4975	1057.3	1051.1	1045	–	–	–	1320	1.44	1.316	1.193
[2], x2 = 0.5978	1052.8	1046.7	1040.6	–	–	–	1329	1.375	1.259	1.143
[2], x2 = 0.7008	1047.7	1041.5	1035.4	–	–	–	1337	1.312	1.203	1.094
[2], x2 = 0.7971	1042.1	1036.1	1029.9	–	–	–	1343	1.259	1.157	1.055
[2], x2 = 0.8976	1035.5	1029.5	1023.6	–	–	–	1347	1.206	1.111	1.016

CCOC(=O)c1ccccc1C(=O)OCC [diethyl phthalate] + C1COCCO1
Details	mass density, 298.15 K [kg/m3]	mass density, 303.15 K [kg/m3]	mass density, 308.15 K [kg/m3]	refractive index, 298.15 K	refractive index, 303.15 K	refractive index, 308.15 K	speed of sound, 298.15 K [m/s]	viscosity, 298.15 K [mPa·s]	viscosity, 303.15 K [mPa·s]	viscosity, 308.15 K [mPa·s]
[1], x2 = 0	–	–	–	1.5001	1.4978	1.4958	–	–	–	–
[1], x2 = 0.1133	–	–	–	1.4962	1.494	1.4917	–	–	–	–
[1], x2 = 0.2083	–	–	–	1.4924	1.4902	1.4882	–	–	–	–
[1], x2 = 0.3086	–	–	–	1.4882	1.486	1.4837	–	–	–	–
[1], x2 = 0.409	–	–	–	1.4826	1.4805	1.4783	–	–	–	–
[1], x2 = 0.5026	–	–	–	1.4768	1.4747	1.4724	–	–	–	–
[1], x2 = 0.5985	–	–	–	1.47	1.4676	1.4653	–	–	–	–
[1], x2 = 0.702	–	–	–	1.4608	1.4585	1.4564	–	–	–	–
[1], x2 = 0.8001	–	–	–	1.4504	1.4481	1.4457	–	–	–	–
[1], x2 = 0.8975	–	–	–	1.4376	1.435	1.4326	–	–	–	–
[2], x2 = 0	1115.1	1110.2	1105.6	–	–	–	1446	7.926	6.129	4.893
[2], x2 = 0.1133	1110.7	1105.8	1101	–	–	–	1435	6.52	5.327	4.134
[2], x2 = 0.2083	1106.5	1101.5	1096.6	–	–	–	1427	5.536	4.567	3.597
[2], x2 = 0.3086	1101.4	1096.3	1091.4	–	–	–	1418	4.593	3.813	3.032
[2], x2 = 0.409	1095.5	1090.4	1085.3	–	–	–	1408	3.793	3.18	2.568
[2], x2 = 0.5026	1089.1	1084	1078.7	–	–	–	1399	3.122	2.637	2.151
[2], x2 = 0.5985	1081.4	1076.1	1070.9	–	–	–	1390	2.544	2.184	1.824
[2], x2 = 0.702	1071.6	1066.1	1060.8	–	–	–	1380	2.037	1.753	1.468
[2], x2 = 0.8001	1060.2	1054.7	1049.2	–	–	–	1370	1.641	1.436	1.23
[2], x2 = 0.8975	1046.3	1040.7	1035	–	–	–	1359	1.319	1.18	1.042

CCCCCCCCOC(=O)c1ccccc1C(=O)OCCCCCCCC [dioctyl 1,2-benzenedicarboxylate] + C1COCCO1
Details	mass density, 298.15 K [kg/m3]	mass density, 303.15 K [kg/m3]	mass density, 308.15 K [kg/m3]	refractive index, 298.15 K	refractive index, 303.15 K	refractive index, 308.15 K	speed of sound, 298.15 K [m/s]	viscosity, 298.15 K [mPa·s]	viscosity, 303.15 K [mPa·s]	viscosity, 308.15 K [mPa·s]
[1], x2 = 0	–	–	–	1.485	1.4831	1.481	–	–	–	–
[1], x2 = 0.1337	–	–	–	1.4836	1.4819	1.4804	–	–	–	–
[1], x2 = 0.2243	–	–	–	1.4822	1.4798	1.4775	–	–	–	–
[1], x2 = 0.3207	–	–	–	1.4812	1.4784	1.4756	–	–	–	–
[1], x2 = 0.4226	–	–	–	1.4781	1.4771	1.4762	–	–	–	–
[1], x2 = 0.5169	–	–	–	1.4733	1.4717	1.47	–	–	–	–
[1], x2 = 0.6054	–	–	–	1.4692	1.4673	1.4652	–	–	–	–
[1], x2 = 0.7161	–	–	–	1.463	1.461	1.46	–	–	–	–
[1], x2 = 0.8031	–	–	–	1.4566	1.4541	1.4516	–	–	–	–
[1], x2 = 0.9017	–	–	–	1.4422	1.4401	1.4379	–	–	–	–
[2], x2 = 0	980.7	977.1	973.1	–	–	–	1421	43.03	30.18	21.88
[2], x2 = 0.1337	982.2	978.3	974.4	–	–	–	1416	32.58	24.97	17.36
[2], x2 = 0.2243	983.4	979.4	975.2	–	–	–	1412	26.39	20.41	14.44
[2], x2 = 0.3207	984.8	980.5	976.4	–	–	–	1406	20.73	16.1	11.47
[2], x2 = 0.4226	986.5	982.2	977.8	–	–	–	1400	15.4	12.12	8.836
[2], x2 = 0.5169	988.4	983.9	979.6	–	–	–	1394	11.02	8.852	6.689
[2], x2 = 0.6054	990.7	986.3	981.9	–	–	–	1388	8.056	6.528	5.001
[2], x2 = 0.7161	995	990.5	985.9	–	–	–	1379	4.947	4.096	3.246
[2], x2 = 0.8031	1000.2	995.4	990.6	–	–	–	1372	3.213	2.717	2.222
[2], x2 = 0.9017	1009.9	1004.6	999.5	–	–	–	1361	1.863	1.612	1.361
